We go through two substances from patent US5324633A, “Method and apparatus for measuring binding affinity” (Affymax Technologies N.V., priority 1991, dated 1994).

pKd: −log10 of the molar value. Where two headings read alike, the source gives them in different places. Where no end group is shown, it is not given here.

Experiment [1] has as its target Herz antibody. The experiment can be described thus: Binding affinity of fluorescein-labelled receptor to surface-bound peptide, confocal fluorescence intensity at varying receptor concentrations. The text has this: At step 104 the array or arrays of polymers are exposed to a receptor at a first solution concentration [R]1. According to some embodiments the receptor is marked with an appropriate label such as a fluorescein tag. Fluorescent tags are preferred because the measurements herein are usually taken with a receptor solution in contact with the immobilized ligands to ensure that the immobilized ligand are in equilibrium with the receptor. […] Confocal microscopy provides one preferred method of distinguishing between surface receptor fluorescence and background fluorescence from bulk solution receptors, due to the limited depth of field of a confocal microscope. Because the microscope cannot completely exclude fluorescence from bulk solution, contributions of the bulk fluorescence can be eliminated by comparing areas of derivatized and underivatized substrates. This method for eliminating background fluorescence may not be accurate at high receptor concentrations, when non-specific receptor binding to underivatized substrates becomes non-negligible.
At step 106 the array of the polymers is exposed to the receptor, for a time sufficient to allow receptor-ligand interaction, preferably to equilibrium conditions, and at step 108 the fluorescence intensity of the receptor at each of the concentrations [R]n is determined for each of the ligands on each array. […]
At step 110 this information is fit to analysis equations or otherwise processed for determination of the binding affinity of the receptor to the various ligands on the substrate and at step 112 the Kd values, among others, are extracted. In a most preferred embodiment the data are used to determine binding affinity by determining the slope of a best fit line through a plot having, on the y-axis, the ratio of fluorescence intensity to receptor concentration and, on the x-axis, the fluorescence intensity. […] To faciltate comparison to other experiments, one can plot normalized fluorescence intensity on the y axis or receptor concentration on the x axis. […]

Experiment [2] has as its target Herz antibody. The conditions noted are these: solution, comparison value, cited from earlier work.

On to YGTFL (not fully specified), for which the pKd on Herz antibody [1] (sequences synthesized on different chips, exposed to Herz antibody, read-out: Kd / binding affinity from isotherms (FIG. 6)) is roughly 6.15; at Herz antibody [2] (read-out: binding affinity value from other solution experiments) it was 6.30.
Consider YGGFL, for which the “binding affinity by interpolating plot of relative fluorescence intensity vs log10 receptor concentration (FIG. 5)” value in the experiment on Herz antibody [1] (interpolated between 10^-8 M and 10^-9 M curves, peptide synthesized as free peptide then immobilized on surface) is “about 1.8×10^-8 M”. At Herz antibody [1] (peptide synthesized on substrate, equilibrium over about 24 hours, non-derivatized substrate background subtracted), the “Kd from slope of best fit line, ratio of fluorescence intensity to receptor concentration vs fluorescence intensity (FIG. 4)” value worked out at 18 nM. On Herz antibody [2] (read-out: Kd value from other solution experiments), the pKd was 8.00.
